# Entries after “also recorded” stand apart in the source; their conditions may differ.
# Key:
# aSMase = biological target: aSMase; parameters: method as in earlier work; conditions: ref personal communication with Drs. Marc Ferrer and Wei Zheng, NCATS; cited from earlier work
# [1] = tested on: rat primary cortical neurons; test: Lipid extraction and ceramide measurements (LC-MS/MS); format: cell-based; conditions: rat primary neurons, TNF-α
# Experimental: Primary cortical neurons were prepared from embryonic day 18 Sprague-Dawley rats following previously described methods. […] A crude lipid extract from cortical neurons was obtained using a modified Bligh and Dyer procedure. Ceramide C12:0 (Avanti Polar Lipids) was included as an internal standard. The organic layers were dried in a nitrogen evaporator (Organomation Associates Inc.) and stored at -80°C. Dried organic layers were resuspended in methanol just prior to analysis. The detection and quantitation of individual ceramide species was performed on a high-performance liquid chromatography (HPLC) coupled electrospray ionization triple quadrupole mass spectrometer (API3000, AB Sciex Inc.) using settings similar to those described in previous studies. Samples were handled by a CTC PAL autosampler (LEAP Technologies Inc.) and injected into an HPLC (PerkinElmer) equipped with a reverse phase C18 column (Phenomex). […] The eluted sample was injected into the electrospray ionization source and detection of each ceramide species was conducted by multiple reaction monitoring. Spectral analysis was conducted using MultiQuant (AB Sciex Inc.), individually validated and normalized to the internal standard. Final data for each ceramide species in counts per second was expressed as the ratio of analyte/internal standard.
# Solubility = format: physicochemical; conditions: cambinol compared to GW4869
# [2] = tested on: Burkitt lymphoma xenografts; parameters: method as in PMID 16618762; conditions: mice, cited from earlier work
# rat nSMase2 = biological target: T1, rat nSMase2 (Rattus norvegicus, UniProt O35049); test: Fluorescence assay with rat brain homogenate membrane fraction; format: biochemical; conditions: rat brain homogenates
# T1 construct: A membrane protein-enriched fraction of rat brain homogenate was used as the source for nSMase2; from tissue; host or cells: rat brain homogenate, membrane protein-enriched fraction
# T1 sequence (O35049 1-655): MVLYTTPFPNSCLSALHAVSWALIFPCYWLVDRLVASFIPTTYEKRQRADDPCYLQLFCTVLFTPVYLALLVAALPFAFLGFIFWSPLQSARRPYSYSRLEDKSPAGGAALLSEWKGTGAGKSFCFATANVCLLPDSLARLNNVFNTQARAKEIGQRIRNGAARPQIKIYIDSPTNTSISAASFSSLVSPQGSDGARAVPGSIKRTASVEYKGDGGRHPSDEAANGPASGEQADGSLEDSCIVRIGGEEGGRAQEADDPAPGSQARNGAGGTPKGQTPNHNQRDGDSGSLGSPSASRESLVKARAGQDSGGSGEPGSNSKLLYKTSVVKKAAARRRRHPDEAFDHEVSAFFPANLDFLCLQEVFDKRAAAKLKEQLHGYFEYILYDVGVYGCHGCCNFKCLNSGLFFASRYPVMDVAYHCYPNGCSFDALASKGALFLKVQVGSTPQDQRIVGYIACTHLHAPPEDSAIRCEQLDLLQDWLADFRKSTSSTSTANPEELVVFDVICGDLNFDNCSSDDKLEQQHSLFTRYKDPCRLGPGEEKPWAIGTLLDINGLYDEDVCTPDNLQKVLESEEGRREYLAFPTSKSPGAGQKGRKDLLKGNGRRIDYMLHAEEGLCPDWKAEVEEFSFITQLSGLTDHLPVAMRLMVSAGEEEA
smiles,measurement,setting,value
"O=c1[nH]c(=S)[nH]c(-c2ccccc2)c1Cc1c(O)ccc2ccccc12 [Cambinol, cambinol]",IC50,aSMase,> 10 µM
same,effect on cytokine-induced increase of ceramide (words),[1],decreased
same,effect on cytokine-induced increase of ceramide (words),[1]; listed as cambinol,dose dependently block; also recorded: blocked
same,aqueous solubility,Solubility,significantly higher; also recorded: improved
same,tolerability,[2]; doses as high as 100 mg/kg intravenously,well tolerated
same,anti-cancer efficacy,[2],effective
same,IC50,rat nSMase2,6 µM

# Reference: article PMC4444023 (PLoS ONE, 2015)
